Reference: patent US5059692A, “Novel compounds exhibiting a vasodilating activity and inhibitory activity for platelet aggregation” (priority 1989, dated 1991)

Legend:
[1] = system: washed platelets; test: Inhibition of Platelets Aggregation (P.A.IC50), collagen-induced, washed platelets, turbidmetric method; assay type: cell-based; conditions: Platelet, human washed platelets, 37° C., 2 min preincubation
Description: Inhibition of Platelets Aggregation (P.A.IC50)
Preparation of washed platelets (centrifugation method) Blood drawn from healthy human volunteers was anticoagulated with 1/10 volume of 0.38% sodium citrate. Platelets-rich plasma (PRP) was obtained by centrifugation of whole blood at 700× G for 10 minutes. The resulting PRP was then centrifuged at 1500× G for 10 minutes in the presence of 1/6 volume of ACD solution (2.2% of sodium citrate, 0.8% of citric acid and 2.2% of glucose), and the pellet was suspended with the modified HEPES-Tyrode solution (135 mM NaCl, 2.7 mM KCl, 1 mM MgCl2, 0.1% glucose, and 20 mM HEPES; pH 7.4).
After the platelet suspension was centrifuged again at 1500× G for 5 minutes with 1/6 volume of the ACD solution, the pellet was resuspended with the modified HEPES-Tyrode solution. Then the washed platelet suspension (=300,000 platelets/μl) was obtained.
Measurement of Platelet Aggregation (Turbidmetric Method)
Platelet aggregation was studied by the turbidmetric method with an 4 ch. aggregometer (HEMA tracer 601; Nikoh Bioscience Co., Japan). Test sample (3 μl, appropriate concentration) or vehicle (3 μl) was added to 270 μl of the platelet suspension and incubated at 37° C. with stirring for 2 minutes before the addition of 30 μl collagen ([…]).
Estimation of Inhibitory Action
The extent of aggregation was expressed by the maximum change of light transmission expressed as a percentage, taking the difference between light transmission for the platelet suspension and platelet-poor-plasma as a value of 100%. Percent inhibition of aggregation by a test compound was calculated by dividing the percent aggregation by that observed in the control run, then multiplying by 100. IC50 values were expressed as the concentrations of test compounds which produced 50% inhibition of the platelet aggregation.

[2] = system: rabbit mesenteric artery; test: Vasorelaxant Effect (V.R., ED50), KCl-precontracted mesenteric artery strips; conditions: Oryctolagus cuniculus; rabbit superior mesenteric artery helical strips, precontracted with 20 mM KCl, 37°±0.5° C., cumulative addition
Description: Vasorelaxant Effect (V.R., ED50)
Male albino rabbits were killed by exanguination.
The vascular strips were vertically suspended in an organ bath filled with a Krebs-Henseleit solution the temperature of which was maintained at 37°±0.5° C. A mixture of 95% O2 -5% CO2 was constantly bubbled through the bicarbonate-based solution in the organ bath. Mechanical responses of the rabbit mesenteric artery evoked by a high concentration of KCl were measured isometrically using the force-displacement transducer.
After obtaining a reproducible response to KCl, the preparations were precontracted with 20 mM KCl and then relaxed by the cumulative addition of the compounds. The ED50 value was read from a plot of the percentage of the relaxing response (maximum contractile response to KCl was taken as 100%) vs. the log concentration of the compounds.

Row | Compound | IC50 [1] [µM] | EC50 [2] [µM]
1 | COC(=O)c1sc2c(c1N=C1CCCN1C)c1ccccc1c(=O)n2-c1ccccc1C [compound 9, Methyl 4,5-dihydro-4-(2-methylphenyl)-1-(1-methyl-2-pyrrolidinylideneamino)-5-oxo-thieno[2,3-c]isoquinoline-2-carboxylate] | 100 | 1.1
2 | COC(=O)c1sc2c(c1N)c1ccccc1c(=O)n2-c1ccccc1C [compound 2, Methyl 1-amino-4,5-dihydro-4-(2-methylphenyl)-5-oxo-thieno[2,3-c]isoquinoline-2-carboxylate] | 0.56 | 4.6
3 | COC(=O)c1sc2c(c1N)c1ccsc1c(=O)n2-c1ccccc1 [compound 3, Methyl 1-amino-4,5-dihydro-5-oxo-4-phenyl-dithieno[2,3-b:3',2'-d]pyridine-2-carboxylate] | 0.26 | –
4 | COC(=O)c1sc2c(c1N)-c1ccccc1CN2c1ccccc1 [compound 10, Methyl 1-amino-4,5-dihydro-4-phenyl-thieno[2,3-c]isoquinoline-2-carboxylate] | 0.31 | 8
5 | COC(=O)c1sc2c(c1N)c1ccccc1c(=O)n2-c1ccccc1Cl [compound 4, Methyl 1-amino-4-(2-chlorophenyl)-4,5-dihydro-5-oxo-thieno[2,3-c]isoquinoline-2-carboxylate] | 0.1 | 5.7
6 | COC(=O)c1sc2c(c1N=CN(C)C)c1ccccc1c(=O)n2-c1ccccc1 [compound 7, Methyl 1-dimethylaminomethyleneamino-4,5-dihydro-5-oxo-4-phenyl-thieno[2,3-c]isoquinoline-2-carboxylate] | 100 | 74
7 | COC(=O)c1sc2c(c1N)c1ccccc1c(=O)n2-c1ccccc1 [compound 1, Methyl 1-amino-4,5-dihydro-5-oxo-4-phenyl-thieno[2,3-c]isoquinoline-2-carboxylate] | 0.023 | 20
8 | COC(=O)c1sc2c(c1N=CN(C)C)c1ccccc1c(=O)n2-c1ccccc1C [compound 8, Methyl 1-dimethylaminomethyleneamino-4,5-dihydro-4-(2-methylphenyl)-5-oxo-thieno[2,3-c]isoquinoline-2-carboxylate] | – | 1.6
